Where two headings read alike, the source gives them in different places. Where a SMILES comes first, the peptide text is derived from it. Where no end group is shown, it is not given here.
Legend:
bacteria = settings: effectiveness limited to concentrations over this; cited from earlier work
Source text: Despite its efficacy, the widespread pharmaceutical application of peptides faces obstacles, including limited stability in physiological settings and susceptibility to environmental factors. However, AAPV’s overall hydrophilicity (despite the presence of hydrophobic domains) tends to reduce its bioavailability and cellular tissue permeability. The attachment of hydrophobic carriers/molecules can overcome these limitations. Tryptophan (W) is an aromatic hydrophobic amino acid, which has been associated with the activation of antibacterial properties (disturbance of bacterial membra ...

[1] = test system: human neutrophil elastase (HNE); test: HNE inhibition by peptide-loaded electrospun fibers; format: biochemical; settings: AAPV from PCL electrospun fibers, PBS, 37 °C
[2] = cited from earlier work
Source text: Static contact angle measurements are a conventional method to determine the wettability of surfaces. This method involves assessing the angle formed between the solid surface, the liquid droplet, and the vapor phase at the three-phase contact point. […] Electrospun fibers unlo ...

HNE = settings: AAPV from co-axial wet-spun microfibers; cited from earlier work
Experimental: During the first 6 h of incubation, nearly 10% of HNE was inhibited by the peptide released from the PCL fibers. This is consistent with the data from Figure 5 since, at this point, >50% of the peptide molecules have been released. In fact, in the absence of PEG, HNE inhibition reached its maximum at this stage, maintaining the levels of enzyme activity in a constant manner until the 24 h period. […] However, considering its hydrophobic nature and affinity towards PCL, it i ...

[3] = test system: human neutrophil elastase (HNE; elastase from human leukocytes); settings: 1 h, 37 °C, 405 nm, n = 3, cited from earlier work
Experimental: Table 1 Inhibition of HNE activity by AAPV [8] and WAAPV at varying concentrations (n = 3). | column: HNE Inhibition (%) / AAPV || AAPV presented its maximum inhibitory capacity at a concentration of 50 μg/mL, which is in accordance with previous research conducted by our team. According to Namjoshi et al., the ability of HNE to digest substrates decreases with increasing inhibitor concentrations. […] Suc ...

S. aureus = settings: loaded at the core of co-axial microfibers; cited from earlier work
Experimental: From the very first moments of incubation, PEG-containing fibers were the ones reporting the highest bacterial inhibitions, a minimum of ≈30% against S. aureus and ≈40% against E. coli. […] In general, the highest ratings for peptide-induced inhibition (in many instances potentiated by PEG) were ...

[4] = format: physicochemical
Experimental: Thermal responses of the fibers were assessed by a thermogravimetric analysis (TGA). Weight loss was monitored as the temperature increased from 25 to 600 °C at a heating rate of 10 °C/min under a dynamic nitrogen atmosphere with a flow rate of 200 mL/min, using an STA 7200 instrument (Hitachi®, Fukuoka, Japan) and aluminum pans. Results were plotted as the percentage of weight loss vs. temperature. Water contact angles were determined using an OCA 200 goniometer, Data Physics (Filderstadt, Germany), following an adaptation of the ASTM-[…]-08 standard. Droplets of 5.0 μL of dH2O, ejected at a rate of 2.0 μL/s, were used to measure the fibers' wettability via the sessile drop method. Six measurements were conducted per type of sample. Angles were recorded immediately after drop contact with the surface (≈10 s after contact).

[5] = test system: Staphylococcus aureus ATCC 6538; format: cell-based; settings: ATCC 6538, 24 h
Experimental: Minimum inhibitory concentration (MIC) of both peptides and PEG was determined, against S. aureus and E. coli by the broth microdilution method, based on a publication by the Clinical and Laboratory Standards Institute (CLSI) and European Committee on Antimicrobial Susceptibility Testing (EUCAST). For this test, AAPV and WAAPV were dissolved in dH2O at a concentration of 4.096 mg/mL, whereas PEG was also diluted in dH2O at 10.240 mg/mL, working as stock solutions. […] Then, a bacterium suspension at 1 × 10^6 CFUs/mL was added to the wells. Controls consisting of MHB and bacteria suspensions free from any of the active agents were produced, representing the negative and positive control samples, respectively. Absorbance readings were conducted with an EZ Read 2000 Microplate Reader at 600 nm before (0 h) and 24 h after incubation at 37 °C at 120 rpm. MIC was then perceived by the differences between the several absorbance readings. Minimum bactericidal concentrations (MBCs) were established by the culture of the same bacterium suspensions at MIC and their vicinities (dilutions before and after MIC value). Aliquots were collected and diluted in PBS (10^−1–10^−4). Then, the aliquots were plated in TSA and incubated at 37 °C during 24 h, after which the grown colonies were observed and counted.

[6] = format: physicochemical; settings: not told
Experimental: The fibers’ capacity for air exchange (permeability) was examined according to standard ISO 9237 [24]. Air pressure of 200 Pa was applied on three samples of each typology in three randomly selected points of 1.33 cm^2 (1.30 cm diameter), and the permeability was measured. For determining the porosity (P%) of the samples [25], measurements of the amount of ethanol absorbed after 1 h of immersion in static conditions and RT (Equation (1)) were used:(1) P(%)=Ww−WD/ρEthanolVSample×100, where WW and WD are the weight of the wet and dry samples, respectively; ρethanol is the density of the ethanol at RT (0.789 g/cm^3); and Vsample is the volume of the wet sample, determined by measuring the 6 mm diameter samples’ thickness with a pachymeter. The experiment was performed in triplicate.

## CC(C)[C@H](NC(=O)[C@@H]1CCCN1C(=O)[C@H](C)NC(=O)[C@H](C)N)C(=O)O (H-AAPV-OH)
other
  main degradation step of free peptide: 200 °C

## CC(C)[C@H](NC(=O)[C@@H]1CCCN1C(=O)[C@H](C)NC(=O)[C@H](C)N)C(=O)O [AAPV, alanine–alanine–proline–valine] (H-AAPV-OH)
bacteria
  effective antimicrobial concentration: over 2 mg/mL
[1]
  time of maximum HNE inhibition: 6 h
[2]
  hydrophilicity of overall structure: hydrophilic
HNE
  time of maximum HNE inhibition: 24 h
[3]; AAPV 0.10 μg/mL
  HNE Inhibition: 0.79 ± 0.008%
[3]; AAPV 0.20 μg/mL
  HNE Inhibition: 2.37 ± 0.007%
[3]; AAPV 0.39 μg/mL
  HNE Inhibition: 3.43 ± 0.005%
[3]; AAPV 0.78 μg/mL
  HNE Inhibition: 4.07 ± 0.004%
[3]; AAPV 1.56 μg/mL
  HNE Inhibition: 6.43 ± 0.005%
[3]; AAPV 3.13 μg/mL
  HNE Inhibition: 8.07 ± 0.007%
[3]; AAPV 6.25 μg/mL
  HNE Inhibition: 8.84 ± 0.002%
[3]; AAPV 12.50 μg/mL
  HNE Inhibition: 9.56 ± 0.011%
[3]; AAPV 25.00 μg/mL
  HNE Inhibition: 12.69 ± 0.002%
[3]; AAPV 50.00 μg/mL
  HNE Inhibition: 16.89 ± 0.010%
[3]; AAPV 100.00 μg/mL
  HNE Inhibition: 9.53 ± 0.010%
[3]; AAPV 200.00 μg/mL, substrate N-MeO-Suc-Ala-Ala-Pro-Val-p-NA, 0.1 M Tris-HCl, HNE 45 mU
  HNE Inhibition: 5.74 ± 0.010%
S. aureus
  S. aureus inhibitory activity: found to potentiate this inhibitory activity against S. aureus

## CC(C)[C@H](NC(=O)[C@@H]1CCCN1C(=O)[C@H](C)NC(=O)[C@H](C)N)C(=O)O [PCL + AAPV] (H-AAPV-OH)
[4]
  mass loss before main degradation step: ~8%
  temperature at which (main) thermal degradation starts: ≈ 335 °C

## H-WAAPV-OH
other
  main degradation step of free peptide: 200 °C

## WAAPV [PCL + WAAPV]
[4]
  mass loss before main degradation step: < 4%
  temperature at which (main) thermal degradation starts: ≈ 365 °C

## WAAPV [WAAPV]
[5]
  MBC: 2048 µg/mL
  MIC: 2048 µg/mL

## polycaprolactone [PCL]
[6]
  Air Permeability: 0.523 ± 0.057 L/min
[4]
  mass loss before main degradation step: < 4%
  temperature at which (main) thermal degradation starts: ≈ 370 °C
  temperature range of main thermal degradation: 370-435 °C

Source: article PMC11280037, “Inhibition of Enzyme and Bacteria Activities in Diabetic Ulcer-like Scenarios via WAAPV-Loaded Electrospun Fibers” (Pharmaceutics, 2024)
